Tests used:
[1] = test system: Human RSV-A (“Long” strain); assay: RSV-A assay: inhibition of cytopathic effect in Hep-2 cells, ATPlite readout; format: cell-based, Human respiratory syncytial virus (HRSV); conditions: human respiratory syncytial virus, HEp-2, 120 h, read-out: Human RSV-A (“Long” strain) EC50
How it was run: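 Cytopathic-effect protection was read as ATP content (ATPlite luminescence) after a 5-day incubation. Setup: Hep-2 cells at 8,000 per well, RSV-A Long at MOI 0.1, 2-fold serial compound dilutions in duplicate. Cytotoxicity (CC50) was measured on an identical uninfected plate run in parallel.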

[2] = Cytotoxicity on parallel plate without virus, ATPlite readout; format: cell-based; conditions: human, Hep-2 cells (no virus), Hep-2 cells without virus, 5-day incubation
Experimental: Following extensive parameter testing, the final assay is run as follows: Hep-2 cells are seeded into the inner 60 wells of a 96-well plate at 8,000 cells per well in a volume of 50 μL using Growth Media (DMEM without phenol red, 1% L-Glut, 1% Penn/Strep, 1% nonessential amino acids, 10% heat-inactivated FBS). 2-fold serial dilutions of control and test compounds are added to the wells in duplicate in a total volume of 25 μL. Viral stock is then added to the wells at a multiplicity of infection (MOI) of 0.1 in a volume of 25 μL, bringing the total volume of each well to 100 μL. The MOI is calculated using the PFU/mL, or TCID50 if unavailable. Each 96-well plate has a control column of 6 wells with cells and virus but no compound (negative control, max CPE), a column with cells but no compound or virus (positive control, minimum CPE), and a column with no cells or virus or compound (background plate/reagent control). The control wells with cells but no virus are given an additional 25 uL of growth media containing an equal quantity of sucrose as those wells receiving the viral stock in order to keep consistent in media and volume conditions. The outer wells of the plate are filled with 125 μL of moat media (DMEM, 1% Penn/Strep) to act as a thermal and evaporative moat around the test wells. Following a 5-day incubation period, the plates are read using ATPlite (50 uL added per well), which quantifies the amount of ATP (a measure of cell health) present in each well. Assay plates are read using the Envision luminometer. In parallel, cytotoxicity is examined on an additional 96-well plate treated in an identical manner, but substituting the 25 μL of viral stock for 25 μL of growth media. […] EC50 ranges are as follows: A<0.4 μM; B 0.4-0.8 μM; C>0.8 μM and CC50 ranges are as follows: A>50 μM; B 10-50 μM; C<10 μM.

| Compound | EC50 [1] [µM] | CC50 at 5 days [2] [µM] |
| --- | --- | --- |
| O=C1Nc2ccccc2C(c2ccccc2)=NC1Nc1nnc(-c2ccncc2)o1 (centres unmarked) [Example 61] | 0.4 to 0.8 | > 50 |
| O=C1Nc2ccccc2C(c2ccccc2)=NC1Nc1cc(N2CCOCC2)ncn1 (centres unmarked) [Example 93] | > 0.8 | 10 to 50 |
| O=C1Nc2ccccc2C(c2ccccc2)=NC1Nc1nnc(C2CCNCC2)o1 (centres unmarked) [Example 45] | > 0.8 | > 50 |
| O=C1Nc2ccccc2C(c2ccccc2)=NC1Nc1cc(Oc2ccccc2)ncn1 (centres unmarked) [Example 94] | > 0.8 | 10 to 50 |
| O=C1Nc2ccccc2C(c2ccccc2)=NC1Nc1nnc(-c2cncs2)o1 (centres unmarked) [Example 76] | > 0.8 | > 50 |
| O=C1Nc2ccccc2C(c2ccccc2)=NC1Nc1nc2c(F)cccc2o1 (centres unmarked) [Example 105] | > 0.8 | > 50 |
| O=C1Nc2ccccc2C(c2ccccc2)=N[C@H]1Nc1nnc(-c2ccc(F)cc2)o1 [Example 7b] | > 0.8 | 10 to 50 |
| CS(=O)(=O)c1ccc(-c2nnc(NC3N=C(c4ccccc4)c4ccccc4NC3=O)o2)cc1 (centres unmarked) [Example 27] | > 0.8 | > 50 |
| CN1CCC(c2nnc(NC3N=C(c4ccccc4)c4ccccc4NC3=O)o2)CC1 (centres unmarked) [Example 46] | > 0.8 | > 50 |
| N#Cc1cc(-c2nnc(NC3N=C(c4ccccc4)c4ccccc4NC3=O)o2)ccn1 (centres unmarked) [Example 38] | > 0.8 | > 50 |
| COc1ccc(-c2nnc(NC3N=C(c4ccccc4)c4ccccc4NC3=O)o2)cc1 (centres unmarked) [Example 8] | > 0.8 | > 50 |
| Cc1cc(-c2nnc(NC3N=C(c4ccccc4)c4ccccc4NC3=O)o2)ccc1C#N (centres unmarked) [Example 34] | 0.4 to 0.8 | > 50 |
| O=C1Nc2ccccc2C(c2ccccc2)=NC1Nc1cc(-c2ccccc2)ncn1 (centres unmarked) [Example 92] | > 0.8 | 10 to 50 |
| O=C1Nc2ccccc2C(c2ccccc2)=NC1Nc1nnco1 (centres unmarked) [Example 79] | > 0.8 | > 50 |
| COc1ccc(-c2nnc(NC3N=C(c4ccccc4)c4ccccc4NC3=O)o2)cn1 (centres unmarked) [Example 54] | < 0.4 | > 50 |
| Cc1ccc2oc(NC3N=C(c4ccccc4)c4ccccc4NC3=O)nc2c1 (centres unmarked) [Example 106] | > 0.8 | < 10 |
| O=C1Nc2ccccc2C(c2ccccc2)=NC1Nc1nnc(-c2ccc(Cl)o2)o1 (centres unmarked) [Example 20] | > 0.8 | > 50 |
| COc1ccnc(-c2nnc(NC3N=C(c4ccccc4)c4ccccc4NC3=O)o2)c1 (centres unmarked) [Example 57] | > 0.8 | > 50 |
| O=C1Nc2ccccc2C(c2ccccc2)=NC1Nc1nnc(-c2ccccc2)o1 (centres unmarked) [Example 2] | > 0.8 | > 50 |
| O=C1Nc2ccccc2C(c2ccccc2)=NC1Nc1nnc(-c2ccc(F)cc2F)o1 (centres unmarked) [Example 50] | > 0.8 | > 50 |
| O=C1Nc2ccccc2C(c2ccccc2)=NC1Nc1nnc(-c2ccc3nc[nH]c3c2)o1 (centres unmarked) [Example 41] | > 0.8 | > 50 |
| COCCOc1cccc(-c2nnc(NC3N=C(c4ccccc4)c4ccccc4NC3=O)o2)c1 (centres unmarked) [Example 1] | > 0.8 | > 50 |
| COc1ccc(-c2nnc(NC3N=C(c4ccccc4)c4ccccc4NC3=O)o2)nc1 (centres unmarked) [Example 51] | 0.4 to 0.8 | > 50 |
| O=C1Nc2ccccc2C(c2ccccc2)=NC1Nc1nnc(-c2ccccc2)[nH]1 (centres unmarked) [Example 86] | > 0.8 | > 50 |
| Cn1ccnc1-c1nnc(NC2N=C(c3ccccc3)c3ccccc3NC2=O)o1 (centres unmarked) [Example 67] | > 0.8 | > 50 |
